Among the data in ChEMBL document CHEMBL2007661, “Compounds: GSK PKIS; Assays: UNC Frye lab” (2012) are inhibition values, retold here.

Test [1] addresses T1, Inhibitor of nuclear factor kappa-B kinase subunit beta (Homo sapiens) (UniProt O14920).
T1 sequence (whole entry): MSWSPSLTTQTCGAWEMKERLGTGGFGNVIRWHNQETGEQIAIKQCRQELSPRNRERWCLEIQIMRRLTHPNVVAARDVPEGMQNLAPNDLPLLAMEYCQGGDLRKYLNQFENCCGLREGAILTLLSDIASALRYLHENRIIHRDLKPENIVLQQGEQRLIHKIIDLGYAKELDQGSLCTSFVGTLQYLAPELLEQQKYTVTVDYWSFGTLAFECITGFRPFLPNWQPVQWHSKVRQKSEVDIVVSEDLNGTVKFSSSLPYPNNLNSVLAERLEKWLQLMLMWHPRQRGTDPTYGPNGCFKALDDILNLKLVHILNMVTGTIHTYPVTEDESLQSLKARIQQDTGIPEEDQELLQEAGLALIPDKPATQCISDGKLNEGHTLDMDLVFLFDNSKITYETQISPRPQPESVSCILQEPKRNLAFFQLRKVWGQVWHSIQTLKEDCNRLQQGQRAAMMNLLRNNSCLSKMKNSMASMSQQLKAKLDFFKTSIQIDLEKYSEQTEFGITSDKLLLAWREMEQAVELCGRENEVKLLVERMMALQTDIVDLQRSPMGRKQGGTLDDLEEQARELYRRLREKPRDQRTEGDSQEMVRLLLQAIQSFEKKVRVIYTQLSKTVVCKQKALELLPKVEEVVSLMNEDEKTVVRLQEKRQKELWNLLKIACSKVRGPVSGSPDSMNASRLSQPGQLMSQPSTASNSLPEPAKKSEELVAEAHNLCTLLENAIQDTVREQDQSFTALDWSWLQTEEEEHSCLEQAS
The following applies: at 1 µM.

For test [2], the target named is T2, Tyrosine-protein kinase Mer (Homo sapiens) (UniProt Q12866).
T2 sequence (whole entry): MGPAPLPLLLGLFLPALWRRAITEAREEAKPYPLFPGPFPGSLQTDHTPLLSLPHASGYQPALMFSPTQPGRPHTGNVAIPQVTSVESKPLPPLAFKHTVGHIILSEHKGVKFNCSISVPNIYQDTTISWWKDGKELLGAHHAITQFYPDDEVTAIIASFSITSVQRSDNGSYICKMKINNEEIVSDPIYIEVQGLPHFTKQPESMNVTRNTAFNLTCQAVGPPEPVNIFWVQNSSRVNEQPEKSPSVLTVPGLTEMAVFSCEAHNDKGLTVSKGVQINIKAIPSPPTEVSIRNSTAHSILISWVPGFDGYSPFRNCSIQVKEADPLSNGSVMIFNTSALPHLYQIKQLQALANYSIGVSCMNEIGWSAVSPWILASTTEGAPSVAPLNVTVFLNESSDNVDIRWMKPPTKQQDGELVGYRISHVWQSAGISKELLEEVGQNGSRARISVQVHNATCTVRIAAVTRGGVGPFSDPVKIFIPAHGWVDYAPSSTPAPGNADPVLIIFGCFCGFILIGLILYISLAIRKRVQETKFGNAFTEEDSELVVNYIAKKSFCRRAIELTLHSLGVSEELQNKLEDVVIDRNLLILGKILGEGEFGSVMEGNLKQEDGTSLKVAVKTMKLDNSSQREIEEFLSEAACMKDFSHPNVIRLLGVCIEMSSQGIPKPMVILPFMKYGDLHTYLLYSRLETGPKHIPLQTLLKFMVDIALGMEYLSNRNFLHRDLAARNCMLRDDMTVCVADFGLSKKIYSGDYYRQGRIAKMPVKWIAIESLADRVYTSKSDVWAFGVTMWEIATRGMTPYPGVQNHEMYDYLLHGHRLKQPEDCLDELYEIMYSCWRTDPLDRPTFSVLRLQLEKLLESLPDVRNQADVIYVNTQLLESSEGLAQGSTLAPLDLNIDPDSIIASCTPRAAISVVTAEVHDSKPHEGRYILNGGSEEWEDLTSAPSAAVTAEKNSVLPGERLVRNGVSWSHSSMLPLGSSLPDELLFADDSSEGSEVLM
The following applies: at 10 µM.

In test [3] the target is T3, Serine/threonine-protein kinase TBK1 (Homo sapiens) (UniProt Q9UHD2).
T3 sequence (whole entry): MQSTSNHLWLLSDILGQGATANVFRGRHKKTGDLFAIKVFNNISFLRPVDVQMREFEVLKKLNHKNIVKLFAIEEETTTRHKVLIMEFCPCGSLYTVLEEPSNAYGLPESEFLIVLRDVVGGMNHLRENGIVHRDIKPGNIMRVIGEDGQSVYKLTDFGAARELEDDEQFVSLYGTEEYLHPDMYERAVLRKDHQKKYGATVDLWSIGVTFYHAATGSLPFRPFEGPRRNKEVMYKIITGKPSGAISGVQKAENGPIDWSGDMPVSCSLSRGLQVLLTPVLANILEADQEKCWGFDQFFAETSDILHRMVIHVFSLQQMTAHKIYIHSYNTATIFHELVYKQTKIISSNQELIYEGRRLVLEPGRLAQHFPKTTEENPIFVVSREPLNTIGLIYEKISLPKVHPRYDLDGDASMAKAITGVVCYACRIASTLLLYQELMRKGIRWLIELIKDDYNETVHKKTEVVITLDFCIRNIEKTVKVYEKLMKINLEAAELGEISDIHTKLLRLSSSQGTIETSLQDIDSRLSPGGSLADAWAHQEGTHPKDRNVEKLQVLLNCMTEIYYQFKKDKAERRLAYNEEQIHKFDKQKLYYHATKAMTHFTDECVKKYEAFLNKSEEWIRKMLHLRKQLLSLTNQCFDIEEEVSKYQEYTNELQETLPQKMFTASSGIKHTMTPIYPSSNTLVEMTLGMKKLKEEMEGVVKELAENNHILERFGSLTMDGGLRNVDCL
The conditions noted are these: at 1 µM.

The structures appear in SMILES notation. “And” between values parts separate entries of the source, which are not always exact repeats. Identical values can stand only once.

One may read the inhibition as the drop in the measured response relative to a control, in per cent. With `COc1cc2c(cc1Nc1nc(N3CCc4ccccc43)c3cc[nH]c3n1)N(C(=O)CN(C)C)CC2`, the inhibition in test [1] is -6%; in test [2], 3%; in test [3], 24% and 28%.
As to `Cc1nc(-c2ccccc2)n2nc(NCCCN3CCOCC3)ncc12`, the inhibition was -2% and 2% in test [1]; 39% in test [2]; 5% and 8% in test [3].
`c1ccc(-c2nc3n(c2-c2ccc4c(c2)OCO4)CCC3)nc1`: the inhibition was -5% and -3% in test [1]; -1% in test [2]; 5% in test [3].
As to `CS(=O)(=O)CCNCc1nc(-c2ccc3ncnc(Nc4ccc(OCc5cccc(C(F)(F)F)c5)cc4)c3c2)cs1`, the inhibition in test [1] was -2% and -1%; in test [2], -6%; in test [3], -2% and 1%.
Consider `COc1cc(N2CCN(C(C)C)CC2)ccc1Nc1nc(Nc2cccc3ncccc23)c2cc[nH]c2n1`, for which the inhibition was -2% and -4% in test [1]; -5% in test [2]; 7% and 2% in test [3].
For `COc1cc(C=NNc2ncnc3c2cnn3-c2ccccc2)ccc1O`, the inhibition is 2% in test [1]; 0% in test [2]; 38% and 42% in test [3].
Consider `COc1cc(C)c(NC(=O)CN(C)C)cc1Nc1nc(Nc2cccc(F)c2C(N)=O)c2cc[nH]c2n1`, for which the inhibition in test [1] is -1% and 18%; in test [2], 52%; in test [3], 30% and 32%.
With `OCc1ccc(-c2nc(-c3ccccn3)c(-c3ccc4c(c3)OCO4)[nH]2)cc1`, the inhibition in test [1] was -4% and -3%; in test [2], -6%; in test [3] it was -6% and -5%.
Turning to `CS(=O)(=O)CCNCc1ccc(-c2ccc3ncnc(Nc4ccc(OCc5ccccc5)cc4)c3c2)o1`, the inhibition in test [1] is -2% and -3%; in test [2], -3%; in test [3], -1% and -2%.
With `CCn1c(-c2nonc2N)nc2c(C#CC(C)(C)O)nc(OCCNC)cc21`, the inhibition in test [1] was -2%; in test [2], -6%; in test [3], 23% and 19%.
Take `Cc1ccc2c(-c3ccnc(Nc4ccccc4)n3)c(-c3ccc(F)cc3)nn2n1`: the inhibition in test [1] is -1% and -4%; in test [2], 5%; in test [3], -1% and -3%.
`O=C(Nc1n[nH]c2nnc(-c3cccnc3)cc12)C1CC1`: the inhibition in test [1] was 2%; in test [2], -7%; in test [3] it was 5% and 3%.
On to `CC(C)(CO)CNC(=O)c1ccc2c(c1)/C(=N/Nc1ccc(S(N)(=O)=O)cc1)C(=O)N2`, for which the inhibition is -2% in test [1]; 9% in test [2]; 87% and 88% in test [3].
Turning to `O=S(=O)(CCNCc1ccc(-c2ccc3ncnc(Nc4ccc(OCc5cccc(F)c5)c(Cl)c4)c3c2)o1)c1ccccc1`, the inhibition is 0% and -2% in test [1]; 72% in test [2]; 12% and 18% in test [3].
`Nc1ncnc2occ(-c3ccc(NC(=O)Nc4cccc(C(F)(F)F)c4)cc3)c12`: the inhibition in test [1] was -7% and -9%; in test [2], 43%; in test [3], 0% and -1%.
With `COC(=O)Nc1nc2ccc(Oc3ccc(NC(=O)Nc4cccc(Cl)c4)cc3)cc2[nH]1`, the inhibition in test [1] was -2% and 0%; in test [2], 2%; in test [3], 0% and 2%.
Take `CS(=O)(=O)Nc1cccc(-c2ccc3c(NC(=O)C4CC4)n[nH]c3c2)c1`: the inhibition in test [1] is -6%; in test [2], 47%; in test [3], 3% and 5%.
